# Tests used:
# [1] = tested on: Receptor-type tyrosine-protein kinase FLT3 (Homo sapiens), P36888 [UNDEFINED MUTATION]; conditions: Compound concentration 100.0 nM
# [2] = target: Serine/threonine-protein kinase PLK2 (Homo sapiens) (UniProt Q9NYY3); conditions: Compound concentration 100.0 nM
# [3] = target: Calcium/calmodulin-dependent protein kinase kinase 1 (Homo sapiens) (UniProt Q8N5S9); conditions: Compound concentration 100.0 nM
# [4] = target: Mitogen-activated protein kinase 8 (Homo sapiens) (UniProt P45983); conditions: Compound concentration 100.0 nM
# [5] = target: Ephrin type-A receptor 7 (Homo sapiens) (UniProt Q15375); conditions: Compound concentration 100.0 nM
# [6] = target: Alpha-2B adrenergic receptor (Homo sapiens) (UniProt P18089); conditions: Compound concentration 10.0 uM
# [7] = target: 5-hydroxytryptamine receptor 2C (Homo sapiens) (UniProt P28335); conditions: Compound concentration 10.0 uM
# [8] = target: Ephrin type-B receptor 3 (Homo sapiens) (UniProt P54753); conditions: Compound concentration 100.0 nM
# [9] = target: Bone morphogenetic protein receptor type-1A (Homo sapiens) (UniProt P36894); conditions: Compound concentration 100.0 nM
# [10] = target: Serine/threonine-protein kinase mTOR (Homo sapiens) (UniProt P42345); conditions: Compound concentration 100.0 nM
# [11] = target: Receptor-interacting serine/threonine-protein kinase 2 (Homo sapiens) (UniProt O43353); conditions: Compound concentration 100.0 nM
# [12] = tested on: Receptor-type tyrosine-protein kinase FLT3 (Homo sapiens), P36888 [K663Q]; conditions: Compound concentration 100.0 nM
# [13] = target: Ephrin type-A receptor 1 (Homo sapiens) (UniProt P21709); conditions: Compound concentration 100.0 nM
# [14] = target: Dual specificity mitogen-activated protein kinase kinase 5 (Homo sapiens) (UniProt Q13163); conditions: Compound concentration 100.0 nM
# [15] = target: Serine/threonine-protein kinase PRP4 homolog (Homo sapiens) (UniProt Q13523); conditions: Compound concentration 100.0 nM
# [16] = target: Serine/threonine-protein kinase STK11 (Homo sapiens) (UniProt Q15831); conditions: Compound concentration 100.0 nM
# [17] = target: Hormonally up-regulated neu tumor-associated kinase (Homo sapiens) (UniProt P57058); conditions: Compound concentration 100.0 nM
# [18] = target: Ribosomal protein S6 kinase alpha-6 (Homo sapiens) (UniProt Q9UK32); conditions: Compound concentration 100.0 nM
# [19] = target: Phosphatidylinositol 4,5-bisphosphate 3-kinase catalytic subunit gamma isoform (Homo sapiens) (UniProt P48736); conditions: Compound concentration 100.0 nM
# [20] = target: Mitogen-activated protein kinase kinase kinase 3 (Homo sapiens) (UniProt Q99759); conditions: Compound concentration 100.0 nM
# [21] = target: Sigma non-opioid intracellular receptor 1 (Homo sapiens) (UniProt Q99720); conditions: Compound concentration 10.0 uM
# [22] = target: Dual specificity protein kinase CLK2 (Homo sapiens) (UniProt P49760); conditions: Compound concentration 100.0 nM
# [23] = target: Tyrosine-protein kinase Blk (Homo sapiens) (UniProt P51451); conditions: Compound concentration 100.0 nM
# [24] = target: Serine/threonine-protein kinase N2 (Homo sapiens) (UniProt Q16513); conditions: Compound concentration 100.0 nM
# [25] = target: Cytoplasmic tyrosine-protein kinase BMX (Homo sapiens) (UniProt P51813); conditions: Compound concentration 100.0 nM
# [26] = tested on: Tyrosine-protein kinase ABL1 (Homo sapiens), P00519 [F317I]; conditions: Compound concentration 100.0 nM
# [27] = target: Mitogen-activated protein kinase kinase kinase kinase 1 (Homo sapiens) (UniProt Q92918); conditions: Compound concentration 100.0 nM
# [28] = target: Serine/threonine-protein kinase/endoribonuclease IRE1 (Homo sapiens) (UniProt O75460); conditions: Compound concentration 100.0 nM
# [29] = target: SRSF protein kinase 3 (Homo sapiens) (UniProt Q9UPE1); conditions: Compound concentration 100.0 nM
# [30] = target: Dual specificity protein kinase CLK3 (Homo sapiens) (UniProt P49761); conditions: Compound concentration 100.0 nM
# [31] = target: Myotonin-protein kinase (Homo sapiens) (UniProt Q09013); conditions: Compound concentration 100.0 nM
# [32] = target: Cyclin-dependent kinase 4 (Homo sapiens) (UniProt P11802); conditions: Compound concentration 100.0 nM
# [33] = target: Protein kinase C eta type (Homo sapiens) (UniProt P24723); conditions: Compound concentration 100.0 nM
# [34] = tested on: Fibroblast growth factor receptor 3 (Homo sapiens), P22607 [G697C]; conditions: Compound concentration 100.0 nM
# [35] = target: Vascular endothelial growth factor receptor 2 (Homo sapiens) (UniProt P35968); conditions: Compound concentration 100.0 nM
# D(1B) dopamine receptor = D(1B) dopamine receptor (Homo sapiens, UniProt P21918); assay: GPCRScan assay: inhibition of D5; set-up: radioligand conc. used [nm] 2.0 – 3.0, parental cells HEKT
# [36] = tested on: Receptor-type tyrosine-protein kinase FLT3 (Homo sapiens), P36888 [UNDEFINED MUTATION]; conditions: Compound concentration 100.0 nM; remark: listed apart in the source
# [37] = target: Mitogen-activated protein kinase 1 (Homo sapiens) (UniProt P28482); conditions: Compound concentration 100.0 nM
# [38] = target: Dual specificity mitogen-activated protein kinase kinase 2 (Homo sapiens) (UniProt P36507); conditions: Compound concentration 100.0 nM
# [39] = target: Mast/stem cell growth factor receptor Kit (Homo sapiens) (UniProt P10721); conditions: Compound concentration 100.0 nM
# [40] = target: Fibroblast growth factor receptor 4 (Homo sapiens) (UniProt P22455); conditions: Compound concentration 100.0 nM
# [41] = target: Ankyrin repeat and protein kinase domain-containing protein 1 (Homo sapiens) (UniProt Q8NFD2); conditions: Compound concentration 100.0 nM
# [42] = target: Tyrosine-protein kinase JAK1 (Homo sapiens) (UniProt P23458); conditions: Compound concentration 100.0 nM
# [43] = target: Dual specificity mitogen-activated protein kinase kinase 3 (Homo sapiens) (UniProt P46734); conditions: Compound concentration 100.0 nM
# [44] = target: Cyclin-dependent kinase 18 (Homo sapiens) (UniProt Q07002); conditions: Compound concentration 100.0 nM
# Sequence of Tyrosine-protein kinase Blk (Homo sapiens) (P51451 2-505 limits assumed): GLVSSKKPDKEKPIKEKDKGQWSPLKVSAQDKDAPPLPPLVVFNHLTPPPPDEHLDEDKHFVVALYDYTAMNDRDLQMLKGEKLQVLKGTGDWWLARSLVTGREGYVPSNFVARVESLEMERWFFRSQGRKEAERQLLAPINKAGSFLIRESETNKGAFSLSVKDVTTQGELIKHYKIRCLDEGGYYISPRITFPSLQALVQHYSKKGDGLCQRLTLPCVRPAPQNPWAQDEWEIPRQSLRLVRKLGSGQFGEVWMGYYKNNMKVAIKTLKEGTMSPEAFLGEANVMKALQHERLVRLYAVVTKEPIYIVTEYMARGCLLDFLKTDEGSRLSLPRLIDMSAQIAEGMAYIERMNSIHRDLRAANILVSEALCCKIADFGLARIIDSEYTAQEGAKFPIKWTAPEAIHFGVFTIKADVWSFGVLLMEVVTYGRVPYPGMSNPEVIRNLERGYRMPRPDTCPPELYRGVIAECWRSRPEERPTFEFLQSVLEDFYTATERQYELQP
# Sequence of Phosphatidylinositol 4,5-bisphosphate 3-kinase catalytic subunit gamma isoform (Homo sapiens) (P48736 whole entry, looked up, canonical isoform): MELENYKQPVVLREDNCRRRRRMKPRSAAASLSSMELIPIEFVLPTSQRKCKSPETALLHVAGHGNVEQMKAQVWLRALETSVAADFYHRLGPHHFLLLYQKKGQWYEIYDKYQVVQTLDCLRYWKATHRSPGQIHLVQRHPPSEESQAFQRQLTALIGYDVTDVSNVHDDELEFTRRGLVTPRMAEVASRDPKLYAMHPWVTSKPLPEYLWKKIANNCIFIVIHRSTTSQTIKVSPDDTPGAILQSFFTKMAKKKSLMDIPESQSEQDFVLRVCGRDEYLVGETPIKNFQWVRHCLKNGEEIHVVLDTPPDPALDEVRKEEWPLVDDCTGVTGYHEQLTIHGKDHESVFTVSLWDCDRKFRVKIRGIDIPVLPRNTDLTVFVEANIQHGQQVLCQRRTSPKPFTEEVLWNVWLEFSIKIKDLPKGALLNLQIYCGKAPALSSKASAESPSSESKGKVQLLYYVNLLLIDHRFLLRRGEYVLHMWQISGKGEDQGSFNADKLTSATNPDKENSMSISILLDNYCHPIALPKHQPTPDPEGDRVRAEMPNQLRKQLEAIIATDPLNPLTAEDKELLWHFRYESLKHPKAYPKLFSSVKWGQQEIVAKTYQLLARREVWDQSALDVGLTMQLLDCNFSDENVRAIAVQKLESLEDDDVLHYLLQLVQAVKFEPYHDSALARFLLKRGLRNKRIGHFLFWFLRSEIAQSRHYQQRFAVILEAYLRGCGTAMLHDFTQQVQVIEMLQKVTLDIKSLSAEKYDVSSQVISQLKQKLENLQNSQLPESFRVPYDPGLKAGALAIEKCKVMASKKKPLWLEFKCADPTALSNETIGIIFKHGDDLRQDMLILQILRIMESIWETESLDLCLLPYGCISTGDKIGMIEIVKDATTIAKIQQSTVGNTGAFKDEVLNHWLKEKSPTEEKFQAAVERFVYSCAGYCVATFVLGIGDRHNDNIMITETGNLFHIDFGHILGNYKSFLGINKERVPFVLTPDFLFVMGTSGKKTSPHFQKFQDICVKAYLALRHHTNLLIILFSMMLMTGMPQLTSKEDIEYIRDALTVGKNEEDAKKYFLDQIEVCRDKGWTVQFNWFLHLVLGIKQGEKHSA
# Sequence of Serine/threonine-protein kinase PRP4 homolog (Homo sapiens) (Q13523 whole entry): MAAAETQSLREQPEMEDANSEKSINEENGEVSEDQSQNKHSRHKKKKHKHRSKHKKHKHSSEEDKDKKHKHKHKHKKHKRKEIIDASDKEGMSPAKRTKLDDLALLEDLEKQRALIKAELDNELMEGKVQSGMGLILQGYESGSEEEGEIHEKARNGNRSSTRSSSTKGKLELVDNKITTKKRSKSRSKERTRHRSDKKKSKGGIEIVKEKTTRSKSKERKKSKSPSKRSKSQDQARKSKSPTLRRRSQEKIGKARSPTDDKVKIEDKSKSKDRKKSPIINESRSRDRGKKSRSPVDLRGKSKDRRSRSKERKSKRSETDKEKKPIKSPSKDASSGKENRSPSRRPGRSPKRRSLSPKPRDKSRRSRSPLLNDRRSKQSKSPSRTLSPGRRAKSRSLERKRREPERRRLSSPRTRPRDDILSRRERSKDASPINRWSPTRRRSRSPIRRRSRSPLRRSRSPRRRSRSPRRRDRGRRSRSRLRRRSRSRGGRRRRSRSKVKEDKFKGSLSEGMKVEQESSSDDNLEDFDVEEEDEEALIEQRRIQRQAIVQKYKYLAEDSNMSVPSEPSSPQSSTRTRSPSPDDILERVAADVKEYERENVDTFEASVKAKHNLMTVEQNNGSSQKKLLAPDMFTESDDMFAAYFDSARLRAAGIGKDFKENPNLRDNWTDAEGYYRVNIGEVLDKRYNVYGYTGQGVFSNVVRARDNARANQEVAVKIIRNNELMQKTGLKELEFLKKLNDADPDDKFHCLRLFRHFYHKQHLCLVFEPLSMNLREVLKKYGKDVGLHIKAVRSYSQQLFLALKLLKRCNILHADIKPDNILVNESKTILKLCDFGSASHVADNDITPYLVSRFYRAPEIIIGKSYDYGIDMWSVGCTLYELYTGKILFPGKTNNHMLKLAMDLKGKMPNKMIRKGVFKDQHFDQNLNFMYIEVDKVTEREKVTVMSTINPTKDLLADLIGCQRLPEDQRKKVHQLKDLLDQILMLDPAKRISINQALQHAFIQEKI
# Sequence of Dual specificity mitogen-activated protein kinase kinase 2 (Homo sapiens) (P36507 whole entry): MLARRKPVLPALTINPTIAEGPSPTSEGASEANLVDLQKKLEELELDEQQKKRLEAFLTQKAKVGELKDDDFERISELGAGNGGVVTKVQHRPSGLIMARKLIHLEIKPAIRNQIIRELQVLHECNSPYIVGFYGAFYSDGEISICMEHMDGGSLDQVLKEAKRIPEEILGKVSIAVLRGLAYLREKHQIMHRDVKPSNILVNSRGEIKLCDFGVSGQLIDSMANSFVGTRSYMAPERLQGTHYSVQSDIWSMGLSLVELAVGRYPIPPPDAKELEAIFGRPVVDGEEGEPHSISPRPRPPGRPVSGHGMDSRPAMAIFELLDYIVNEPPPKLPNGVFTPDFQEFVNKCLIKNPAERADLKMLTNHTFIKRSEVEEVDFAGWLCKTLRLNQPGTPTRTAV
# Sequence of Protein kinase C eta type (Homo sapiens) (P24723 whole entry): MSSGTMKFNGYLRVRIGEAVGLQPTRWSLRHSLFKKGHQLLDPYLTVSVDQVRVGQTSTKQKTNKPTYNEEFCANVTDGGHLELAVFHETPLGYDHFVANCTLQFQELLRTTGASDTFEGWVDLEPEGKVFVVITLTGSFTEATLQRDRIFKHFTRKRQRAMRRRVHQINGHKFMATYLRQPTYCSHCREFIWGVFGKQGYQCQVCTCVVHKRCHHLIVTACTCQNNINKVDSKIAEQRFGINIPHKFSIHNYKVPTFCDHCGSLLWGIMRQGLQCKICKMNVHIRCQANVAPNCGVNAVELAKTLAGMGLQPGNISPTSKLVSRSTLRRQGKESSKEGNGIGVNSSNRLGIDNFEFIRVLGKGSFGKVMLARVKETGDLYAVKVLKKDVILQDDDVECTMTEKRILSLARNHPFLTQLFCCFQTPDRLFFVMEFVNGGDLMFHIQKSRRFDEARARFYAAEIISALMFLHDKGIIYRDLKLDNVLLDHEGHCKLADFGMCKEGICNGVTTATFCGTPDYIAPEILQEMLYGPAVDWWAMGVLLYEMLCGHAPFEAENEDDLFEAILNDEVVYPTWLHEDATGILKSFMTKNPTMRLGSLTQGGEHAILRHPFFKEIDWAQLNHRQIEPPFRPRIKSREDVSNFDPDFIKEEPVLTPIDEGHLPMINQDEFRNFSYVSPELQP
# Sequence of Ephrin type-A receptor 7 (Homo sapiens) (Q15375 28-998 limits assumed): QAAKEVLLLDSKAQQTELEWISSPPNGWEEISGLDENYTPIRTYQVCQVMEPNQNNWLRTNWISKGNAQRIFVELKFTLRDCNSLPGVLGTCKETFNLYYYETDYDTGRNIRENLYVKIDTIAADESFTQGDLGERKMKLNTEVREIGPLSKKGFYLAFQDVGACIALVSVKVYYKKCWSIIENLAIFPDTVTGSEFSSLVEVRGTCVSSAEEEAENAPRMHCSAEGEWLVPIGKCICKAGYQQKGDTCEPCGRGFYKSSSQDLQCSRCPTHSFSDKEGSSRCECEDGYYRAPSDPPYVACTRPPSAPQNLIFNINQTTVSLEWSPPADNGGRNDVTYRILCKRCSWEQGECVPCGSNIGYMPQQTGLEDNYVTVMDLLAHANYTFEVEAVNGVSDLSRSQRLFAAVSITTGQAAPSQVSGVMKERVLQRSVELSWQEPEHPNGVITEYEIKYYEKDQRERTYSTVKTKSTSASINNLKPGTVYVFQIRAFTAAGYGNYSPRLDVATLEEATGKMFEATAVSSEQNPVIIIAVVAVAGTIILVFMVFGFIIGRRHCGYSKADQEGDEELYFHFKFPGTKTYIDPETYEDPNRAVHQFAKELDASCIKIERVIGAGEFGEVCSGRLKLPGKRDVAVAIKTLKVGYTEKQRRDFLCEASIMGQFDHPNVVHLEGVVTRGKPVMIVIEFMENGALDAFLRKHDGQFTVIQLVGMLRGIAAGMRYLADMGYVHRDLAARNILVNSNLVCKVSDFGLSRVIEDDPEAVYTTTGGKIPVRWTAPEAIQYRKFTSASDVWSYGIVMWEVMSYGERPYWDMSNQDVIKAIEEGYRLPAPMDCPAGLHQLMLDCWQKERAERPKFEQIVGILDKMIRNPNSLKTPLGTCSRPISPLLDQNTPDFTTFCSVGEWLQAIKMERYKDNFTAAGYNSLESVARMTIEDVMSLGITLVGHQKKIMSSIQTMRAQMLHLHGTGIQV
# Sequence of Cyclin-dependent kinase 4 (Homo sapiens) (P11802 whole entry): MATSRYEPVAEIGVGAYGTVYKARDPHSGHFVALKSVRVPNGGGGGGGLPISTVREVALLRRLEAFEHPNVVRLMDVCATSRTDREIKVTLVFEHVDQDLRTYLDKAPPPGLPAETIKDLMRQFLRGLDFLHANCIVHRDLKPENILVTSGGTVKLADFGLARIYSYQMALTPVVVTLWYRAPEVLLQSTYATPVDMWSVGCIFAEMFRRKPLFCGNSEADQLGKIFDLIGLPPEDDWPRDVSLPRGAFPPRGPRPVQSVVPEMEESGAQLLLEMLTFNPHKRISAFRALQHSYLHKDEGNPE
compound,measurement,setting,value
Cn1nc(C(=O)NCc2ccc(C(=O)O)cc2)cc1-c1ccc2[nH]ccc2c1 [BI 4395],residual activity,[1],99%
same,residual activity,[2],100%
same,residual activity,[3],85%
same,residual activity,[4],88%
same,residual activity,[5],82%
same,inhibition,[6],6%
same,inhibition,[7],-9.67%
same,residual activity,[8],100%
same,residual activity,[9],94%
same,residual activity,[10],31%
same,residual activity,[11],100%
same,residual activity,[12],86%
same,residual activity,[13],95%
same,residual activity,[14],63%
same,residual activity,[15],100%
same,residual activity,[16],100%
same,residual activity,[17],65%
same,residual activity,[18],86%
same,residual activity,[19],64%
same,residual activity,[20],78%
same,inhibition,[21],1.99%
same,residual activity,[22],100%
same,residual activity,[23],100%
same,residual activity,[24],100%
same,residual activity,[25],98%
same,residual activity,[26],100%
same,residual activity,[27],97%
same,residual activity,[28],83%
same,residual activity,[29],100%
same,residual activity,[30],95%
same,residual activity,[31],76%
same,residual activity,[32],88%
same,residual activity,[33],84%
same,residual activity,[34],82%
same,residual activity,[35],85%
same,Ki,D(1B) dopamine receptor,10 µM
same,residual activity,[36],91%
same,residual activity,[37],94%
same,residual activity,[38],85%
same,residual activity,[39],97%
same,residual activity,[40],100%
same,residual activity,[41],100%
same,residual activity,[42],84%
same,residual activity,[43],93%
same,residual activity,[44],97%
CCOC(=O)c1cc2cc(-c3cc(C(=O)NCc4ccc(C(=O)O)cc4)nn3C)ccc2[nH]1 [BI 4394],residual activity,[1],87%
same,residual activity,[2],80%
same,residual activity,[3],100%
same,residual activity,[4],96%
same,residual activity,[5],97%
same,inhibition,[6],16.4%
same,inhibition,[7],3.56%
same,residual activity,[8],90%
same,residual activity,[9],87%
same,residual activity,[10],100%
same,residual activity,[11],100%
same,residual activity,[12],90%
same,residual activity,[13],100%
same,residual activity,[14],82%
same,residual activity,[15],89%
same,residual activity,[16],100%
same,residual activity,[17],100%
same,residual activity,[18],95%
same,residual activity,[19],90%
same,residual activity,[20],94%
same,inhibition,[21],14.6%
same,residual activity,[22],96%
same,residual activity,[23],99%
same,residual activity,[24],86%
same,residual activity,[25],82%
same,residual activity,[26],84%
same,residual activity,[27],100%
same,residual activity,[28],90%
same,residual activity,[29],100%
same,residual activity,[30],83%
same,residual activity,[31],87%
same,residual activity,[32],74%
same,residual activity,[33],87%
same,residual activity,[34],92%
same,residual activity,[35],81%
same,Ki,D(1B) dopamine receptor,10 µM
same,residual activity,[36],98%
same,residual activity,[37],99%
same,residual activity,[38],83%
same,residual activity,[39],97%
same,residual activity,[40],68%
same,residual activity,[41],100%
same,residual activity,[42],94%
same,residual activity,[43],100%
same,residual activity,[44],100%

# Source: ChEMBL document CHEMBL4507281, “Data for DCP probe BI-4394” (2021)
